Test results taken from patent US11111249B2, “Heteroaryl-pyrazole derivative, and preparation method therefor and medical application thereof” (Jiangsu Hengrui Medicine Co., Ltd., priority 2017, dated 2021).

Legend:
human TLR8 = molecular target: T1, human TLR8 (Homo sapiens, UniProt Q9NR97); assay: Activation of hTLR8 in HEK-Blue hTLR8 stably transfected cells; type: cell-based; details: OD 620 nm, 6-16 hours
T1 construct: host or cells: HEK-Blue hTLR8 (HEK293-derived) stably transfected cells
T1 sequence (Q9NR97 27-1041): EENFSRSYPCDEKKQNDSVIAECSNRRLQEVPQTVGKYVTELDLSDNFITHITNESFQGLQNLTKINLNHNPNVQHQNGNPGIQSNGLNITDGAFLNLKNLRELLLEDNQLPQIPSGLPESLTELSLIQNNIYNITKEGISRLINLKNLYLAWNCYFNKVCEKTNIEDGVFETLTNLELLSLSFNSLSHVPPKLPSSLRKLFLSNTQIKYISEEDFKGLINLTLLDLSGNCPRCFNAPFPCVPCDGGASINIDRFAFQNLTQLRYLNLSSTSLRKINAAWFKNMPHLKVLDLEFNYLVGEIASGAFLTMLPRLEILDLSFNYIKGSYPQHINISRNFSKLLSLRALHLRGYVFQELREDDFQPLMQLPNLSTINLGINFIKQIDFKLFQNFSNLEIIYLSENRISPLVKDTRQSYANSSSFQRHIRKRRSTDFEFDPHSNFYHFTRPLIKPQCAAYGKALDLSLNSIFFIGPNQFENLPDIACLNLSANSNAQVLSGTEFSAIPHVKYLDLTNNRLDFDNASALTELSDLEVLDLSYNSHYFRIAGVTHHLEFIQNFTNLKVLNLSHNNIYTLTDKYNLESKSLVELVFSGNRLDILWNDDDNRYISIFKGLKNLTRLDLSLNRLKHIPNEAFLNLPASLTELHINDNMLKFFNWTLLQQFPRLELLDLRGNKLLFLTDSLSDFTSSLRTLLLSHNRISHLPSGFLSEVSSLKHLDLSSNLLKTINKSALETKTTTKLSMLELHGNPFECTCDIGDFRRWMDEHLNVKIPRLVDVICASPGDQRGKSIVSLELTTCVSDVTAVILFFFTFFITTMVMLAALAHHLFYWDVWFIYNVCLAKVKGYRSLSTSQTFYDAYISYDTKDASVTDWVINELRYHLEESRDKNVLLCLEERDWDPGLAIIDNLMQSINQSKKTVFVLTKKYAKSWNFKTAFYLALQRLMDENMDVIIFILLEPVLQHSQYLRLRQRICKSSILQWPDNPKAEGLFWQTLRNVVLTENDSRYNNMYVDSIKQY
Protocol: The activation effect of the compound of the present application on the hTLR7 protein expressed in HEK-Blue™ hTLR7 stably transfected cells and hTLR8 protein expressed in HEK-Blue™ hTLR8 stably transfected cells were determined by the following experimental method:
The HEK-Blue assay medium was configured, HEK-Blue test dry powder was taken and 50 mL deendotoxin water were added to dissolve, then the resulting mixture was placed into the 37° C. incubator, and then filtered aseptically 10 minutes later. […]
The above-prepared compound was diluted 20-fold with a medium, and then 20 μL of the diluted compound were added to each well. HEK-Blue™ hTLR7 cells and HEK-Blue™ hTLR8 cells were taken separately, and the supernatant was removed first, then 2-5 mL pre-warmed PBS was added, placed in an incubator for 1-2 minutes, and the cells were gently pipetted, stained with trypan blue and counted. […]
The microplate reader reads at a wavelength of 620 nm. The corresponding OD value was obtained, and the EC50 value of the drug was calculated by Graphpad Prism. The activation effect of the compound of the present application and the control compound (prepared by the method of embodiment 21 of WO2016023511) on human TLR7 and TLR8 were determined by the above test, and the measured EC50 values were as shown in Table 1.

CYP3A4 = molecular target: T2, CYP3A4 (Homo sapiens, UniProt P08684); assay: Inhibition of the midazolam metabolic site on human liver microsome CYP3A4; type: in vitro ADME; details: human liver microsomes, midazolam substrate, 30 minutes
T2 construct: Human liver microsomes (Corning Gentest); tissue Corning Gentest; host or cells: human liver microsomes
Protocol: The enzymatic activity of the compound of the present application against the Midazolam metabolite site on human liver microsome CYP3A4 was determined by the following experimental method:
CYP probe substrate (15 μM Midazolam, SIGMA UC429) and positive control inhibitor (Ketoconazole, SIGMA K1003).
100 mM PBS buffer was configured, and 2.5 mg/mL microsome solution and 5 mM NADPH solution were prepared with this buffer, and the 5× concentration compound working solution was diluted with PBS (150, 50, 15, 5, 1.5, 0.15, 0.015, 0 μM). The 5× concentration of Ketoconazole working solution (150, 50, 15, 5, 1.5, 0.15, 0.015, 0 μM) was diluted with PBS. Midazolam working solution was diluted to a concentration of 15 μM with PBS.
20 μL each of 2.5 mg/mL microsome solution, 15 μM Midazolam working solution, MgCl2 solution and compound working solution (150, 50, 15, 5, 1.5, 0.15, 0.015, 0 μM, each concentration was setted differently reaction system) were taken and mixed evenly. The compound was replaced with the same concentration of Ketoconazole at the positive control group. At the same time, 5 mM NADPH solution was pre-incubated for 5 minutes at 37° C. After 5 minutes, 20 μL NADPH were added into the wells, and the reaction was started and incubated for 30 minutes. All samples were incubated for two samples. […]

T2 sequence (P08684 whole entry): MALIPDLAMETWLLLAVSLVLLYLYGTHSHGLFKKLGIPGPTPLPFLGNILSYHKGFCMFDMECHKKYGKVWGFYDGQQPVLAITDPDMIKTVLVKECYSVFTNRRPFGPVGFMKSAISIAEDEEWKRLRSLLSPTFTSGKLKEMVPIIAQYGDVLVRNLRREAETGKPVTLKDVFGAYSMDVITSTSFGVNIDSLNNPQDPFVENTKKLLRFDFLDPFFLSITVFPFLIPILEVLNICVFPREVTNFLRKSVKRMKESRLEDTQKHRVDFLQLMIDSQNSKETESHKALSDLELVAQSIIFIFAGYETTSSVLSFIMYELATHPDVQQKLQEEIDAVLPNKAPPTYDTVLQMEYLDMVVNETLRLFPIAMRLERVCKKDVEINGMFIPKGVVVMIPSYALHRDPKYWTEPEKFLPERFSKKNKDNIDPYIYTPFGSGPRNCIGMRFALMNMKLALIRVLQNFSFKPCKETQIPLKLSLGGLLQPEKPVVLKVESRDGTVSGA

CCCCOc1nc(N)c2[nH]nc(Cc3ccc(CN4CCCC4)cc3)c2n1 [Embodiment 1, 5-Butoxy-3-(4-(pyrrolidin-1-ylmethyl)benzyl)-1H-pyrazolo[4,3-d]pyrimidin-7-amine]
EC50 (human TLR8): 5.22 µM | IC50 (CYP3A4): 16.7 µM

CCCCOc1nc(N)c2[nH]cc(Cc3ccc(CN4CCCC4)cc3)c2n1 [Embodiment 21 of WO2016023511]
EC50 (human TLR8): 12.5 µM | IC50 (CYP3A4): 1.02 µM
